Key:
A498 = assay type: cell-based; details: Homo sapiens, one dose 10^-5 M, 48 h
EKVX = assay type: cell-based; details: Homo sapiens, one dose 10^-5 M, 48 h
NCI-H522 = assay type: cell-based; details: Homo sapiens, one dose 10^-5 M, 48 h
MDA-MB-231/ATCC = assay type: cell-based; details: one dose 10^-5 M, 48 h; for % growth at 10 µM: Homo sapiens
HS 578T = assay type: cell-based; details: Homo sapiens; one dose 10^-5 M, 48 h; HS 578T; read-out: % growth
M14 = assay type: cell-based; details: Homo sapiens, one dose 10^-5 M, 48 h
SN12C = assay type: cell-based, human; details: Homo sapiens, one dose 10^-5 M, 48 h
SK-MEL-28 = assay type: cell-based; details: Homo sapiens, one dose 10^-5 M, 48 h
NCI-H226 = assay type: cell-based; details: Homo sapiens, one dose 10^-5 M, 48 h
TK-10 = assay type: cell-based; details: Homo sapiens, one dose 10^-5 M, 48 h
OVCAR-8 = assay type: cell-based; details: Homo sapiens, one dose 10^-5 M, 48 h
[1] = test system: full NCI 60 cell lines panel; details: Homo sapiens, 60 cell, 48 h, read-out: Mean % growth
U251 = assay type: cell-based; details: Homo sapiens, U-251, one dose 10^-5 M, 48 h
SK-OV-3 = assay type: cell-based; details: Homo sapiens, one dose 10^-5 M, 48 h
MDA-MB-468 = assay type: cell-based; details: Homo sapiens, one dose 10^-5 M, 48 h
SW-620 = assay type: cell-based; details: Homo sapiens, one dose 10^-5 M, 48 h
HCT-116 = assay type: cell-based; details: Homo sapiens, one dose 10^-5 M, 48 h, read-out: % growth
UACC-257 = assay type: cell-based; details: Homo sapiens, one dose 10^-5 M, 48 h
OVCAR-4 = assay type: cell-based; details: Homo sapiens, one dose 10^-5 M, 48 h
SF-268 = assay type: cell-based; details: Homo sapiens, one dose 10^-5 M, 48 h, read-out: % growth
HOP-62 = assay type: cell-based; details: Homo sapiens, one dose 10^-5 M, 48 h
ACHN = assay type: cell-based; details: Homo sapiens, one dose 10^-5 M, 48 h
HCC-2998 = assay type: cell-based; details: Homo sapiens, one dose 10^-5 M, 48 h
MALME-3M = assay type: cell-based; details: Homo sapiens, one dose 10^-5 M, 48 h
NCI-H460 = assay type: cell-based; details: Homo sapiens, one dose 10^-5 M, 48 h, read-out: % growth
SF-295 = assay type: cell-based; details: Homo sapiens, one dose 10^-5 M, 48 h
HL-60(TB) = assay type: cell-based; details: Homo sapiens, one dose 10^-5 M, 48 h
K-562 = assay type: cell-based; details: Homo sapiens, K562, one dose 10^-5 M, 48 h
LOX IMVI = assay type: cell-based; details: Homo sapiens, one dose 10^-5 M, 48 h, read-out: % growth
MOLT-4 = assay type: cell-based; details: Homo sapiens, one dose 10^-5 M, 48 h, read-out: % growth
OVCAR-5 = assay type: cell-based; details: Homo sapiens, one dose 10^-5 M, 48 h
SK-MEL-5 = assay type: cell-based; details: Homo sapiens, one dose 10^-5 M, 48 h, read-out: % growth
NCI-H23 = assay type: cell-based; details: Homo sapiens, one dose 10^-5 M, 48 h, read-out: % growth
HOP-92 = assay type: cell-based; details: Homo sapiens, one dose 10^-5 M, 48 h
PC-3 = assay type: cell-based; details: Homo sapiens, one dose 10^-5 M, 48 h
CAKI-1 = assay type: cell-based; details: Homo sapiens, CAKI-1, 48 h, one dose 10^-5 M, 48 h
UACC-62 = assay type: cell-based; details: Homo sapiens, one dose 10^-5 M, 48 h
RXF 393 = assay type: cell-based; details: Homo sapiens, RXF 393, 48 h, one dose 10^-5 M, 48 h, read-out: % growth
DU-145 = assay type: cell-based; details: Homo sapiens, one dose 10^-5 M, 48 h
RPMI-8226 = assay type: cell-based; details: Homo sapiens, one dose 10^-5 M, 48 h
IGROV1 = assay type: cell-based; details: Homo sapiens, IGROV-1, one dose 10^-5 M, 48 h, read-out: % growth
MCF7 = assay type: cell-based; details: Homo sapiens, one dose 10^-5 M, 48 h, read-out: % growth
T-47D = assay type: cell-based; details: Homo sapiens, T47D, one dose 10^-5 M, 48 h, read-out: % growth
HT29 = assay type: cell-based; details: Homo sapiens, HT-29, one dose 10^-5 M, 48 h
786-0 = assay type: cell-based; details: Homo sapiens, one dose 10^-5 M, 48 h
SR = assay type: cell-based; details: Homo sapiens, one dose 10^-5 M, 48 h
KM12 = assay type: cell-based; details: Homo sapiens, one dose 10^-5 M, 48 h
SNB-19 = assay type: cell-based; details: Homo sapiens, one dose 10^-5 M, 48 h, read-out: % growth
SF-539 = assay type: cell-based; details: Homo sapiens, one dose 10^-5 M, 48 h
OVCAR-3 = assay type: cell-based; details: Homo sapiens, one dose 10^-5 M, 48 h
A549/ATCC = assay type: cell-based; details: Homo sapiens, one dose 10^-5 M, 48 h
HCT-15 = assay type: cell-based; details: Homo sapiens, one dose 10^-5 M, 48 h, read-out: % growth
UO-31 = assay type: cell-based; details: Homo sapiens, UO-31, 48 h, one dose 10^-5 M, 48 h
CCRF-CEM = assay type: cell-based; details: Homo sapiens, one dose 10^-5 M, 48 h
SK-MEL-2 = assay type: cell-based; details: Homo sapiens, one dose 10^-5 M, 48 h
MDA-MB-435 = assay type: cell-based; details: Homo sapiens, one dose 10^-5 M, 48 h, read-out: % growth
SNB-75 = assay type: cell-based; details: Homo sapiens, one dose 10^-5 M, 48 h

N=C(NN=Cc1ccc(Br)cc1)c1c(N)nc(S)nc1-c1ccc(Cl)cc1 [Compound 4k, 4-amino-N'-[(4-bromophenyl)methylene]-6–(4-chlorophenyl)-2-mercapto pyrimidine-5-carboximidohydrazide]
% growth at 10 µM (A498): 88.4%
% cell growth at 10 µM (EKVX): 66.3%
% growth at 10 µM (NCI-H522): 73.5%
% growth at 10 µM (MDA-MB-231/ATCC): -1.21%
% growth (MDA-MB-231/ATCC): -1.21%
activity at 10 µM (HS 578T): 42.6%
% growth at 10 µM (M14): 76.5%
% growth at 10 µM (SN12C): 87.7%
% cell growth at 10 µM (SK-MEL-28): 105%
% growth at 10 µM (NCI-H226): 98%
% cell growth at 10 µM (TK-10): 116%
% growth of cells at 10 µM (OVCAR-8): 63.7%
activity at 10 µM [1]: 76.8%
% growth at 10 µM (U251): 77.1%
% growth at 10 µM (SK-OV-3): 78.7%
percent cell growth at 10 µM (MDA-MB-468): 84.6%
% growth at 10 µM (SW-620): 95.6%
activity at 10 µM (HCT-116): 69.6%
percent cell growth at 10 µM (UACC-257): 81.4%
% growth at 10 µM (OVCAR-4): 76.7%
activity at 10 µM (SF-268): 90.2%
% growth at 10 µM (HOP-62): 98%
% growth at 10 µM (ACHN): 77.3%
% growth at 10 µM (HCC-2998): 111%
% growth at 10 µM (MALME-3M): 119%
activity at 10 µM (NCI-H460): 73.4%
% cell growth at 10 µM (SF-295): 91.2%
% growth at 10 µM (HL-60(TB)): 119%
% growth at 10 µM (K-562): 67.8%
activity at 10 µM (LOX IMVI): 92.3%
activity at 10 µM (MOLT-4): 54.6%
percent cell growth at 10 µM (OVCAR-5): 97%
activity at 10 µM (SK-MEL-5): 93.3%
activity at 10 µM (NCI-H23): 71.8%
% growth at 10 µM (HOP-92): 19%
percent cell growth at 10 µM (PC-3): 70.5%
% growth at 10 µM (CAKI-1): 62.4%
% growth at 10 µM (UACC-62): 82.4%
activity at 10 µM (RXF 393): 82.5%
% growth at 10 µM (DU-145): 83.9%
% growth at 10 µM (RPMI-8226): 56.8%
activity at 10 µM (IGROV1): 68.2%
activity at 10 µM (MCF7): 57.5%
activity at 10 µM (T-47D): 54.8%
% growth at 10 µM (HT29): 102%
% growth at 10 µM (786-0): 89.9%
percent cell growth at 10 µM (SR): 62.4%
% growth at 10 µM (KM12): 76.2%
activity at 10 µM (SNB-19): 80.4%
% growth at 10 µM (SF-539): 71.2%
% growth at 10 µM (OVCAR-3): 101%
% growth at 10 µM (A549/ATCC): 55.3%
activity at 10 µM (HCT-15): 73.4%
% cell growth at 10 µM (UO-31): 47.8%
% cell growth at 10 µM (CCRF-CEM): 43.4%
% growth at 10 µM (SK-MEL-2): 96%
activity at 10 µM (MDA-MB-435): 87.8%
% growth at 10 µM (SNB-75): 35.5%

N=C(NN=Cc1ccc(Cl)cc1Cl)c1c(N)nc(S)nc1-c1ccc(Cl)cc1 [Compound 4l, 4-amino-6–(4-chlorophenyl)-N'-[(2,4-dichlorophenyl)methylene]-2-mercapto pyrimidine-5-carboximidohydrazide]
% growth at 10 µM (A498): 6.77%
% cell growth at 10 µM (EKVX): 59%
% growth at 10 µM (NCI-H522): 62.3%
% growth at 10 µM (MDA-MB-231/ATCC): 52.7%
activity at 10 µM (HS 578T): 36.4%
% growth at 10 µM (M14): 76.2%
% growth at 10 µM (SN12C): 65.5%
% cell growth at 10 µM (SK-MEL-28): 75.8%
% growth at 10 µM (NCI-H226): 62.4%
% cell growth at 10 µM (TK-10): 98.8%
% growth of cells at 10 µM (OVCAR-8): 90%
activity at 10 µM [1]: 68.3%
% growth at 10 µM (U251): 93.9%
% growth at 10 µM (SK-OV-3): 82.1%
percent cell growth at 10 µM (MDA-MB-468): 88.4%
% growth at 10 µM (SW-620): 95.8%
activity at 10 µM (HCT-116): 84.2%
percent cell growth at 10 µM (UACC-257): 96.5%
% growth at 10 µM (OVCAR-4): 79.2%
activity at 10 µM (SF-268): 73.6%
% growth at 10 µM (HOP-62): 53%
% growth at 10 µM (ACHN): 53.2%
% growth at 10 µM (HCC-2998): 95%
% growth at 10 µM (MALME-3M): 43.4%
activity at 10 µM (NCI-H460): 66.3%
% cell growth at 10 µM (SF-295): 85%
% growth at 10 µM (HL-60(TB)): 101%
% growth at 10 µM (K-562): 77.1%
activity at 10 µM (LOX IMVI): 69.4%
activity at 10 µM (MOLT-4): 66.4%
percent cell growth at 10 µM (OVCAR-5): 73.2%
activity at 10 µM (SK-MEL-5): 81%
activity at 10 µM (NCI-H23): 78.3%
% growth at 10 µM (HOP-92): 54.9%
percent cell growth at 10 µM (PC-3): 48%
% growth at 10 µM (CAKI-1): 37%
% growth at 10 µM (UACC-62): 43.1%
activity at 10 µM (RXF 393): 31.2%
% growth at 10 µM (DU-145): 79.3%
% growth at 10 µM (RPMI-8226): 46.5%
activity at 10 µM (IGROV1): 44.9%
activity at 10 µM (MCF7): 53.1%
activity at 10 µM (T-47D): 28.1%
% growth at 10 µM (HT29): 87%
% growth at 10 µM (786-0): 88.6%
percent cell growth at 10 µM (SR): 65.6%
% growth at 10 µM (KM12): 79.8%
activity at 10 µM (SNB-19): 84%
% growth at 10 µM (SF-539): 70.3%
% growth at 10 µM (OVCAR-3): 80.2%
% growth at 10 µM (A549/ATCC): 90.7%
activity at 10 µM (HCT-15): 77.4%
% cell growth at 10 µM (UO-31): 43.2%
% cell growth at 10 µM (CCRF-CEM): 64.6%
% growth at 10 µM (SK-MEL-2): 83.3%
activity at 10 µM (MDA-MB-435): 89%
% growth at 10 µM (SNB-75): 26.1%

From publication PMC10866072, “Design, synthesis, molecular modelling and biological evaluation of novel 6-amino-5-cyano-2-thiopyrimidine derivatives as potent anticancer agents against leukemia and apoptotic inducers” (Journal of Enzyme Inhibition and Medicinal Chemistry, 2024)
